Measured values reported in publication PMC9655899, “Inhibition of Netosis with PAD Inhibitor Attenuates Endotoxin Shock Induced Systemic Inflammation” (International Journal of Molecular Sciences, 2022).

Columns and labels:
Assay type in all cases: biochemical
PAD2 = biological target: T1, PAD2 (Homo sapiens, UniProt Q9Y2J8); assay: PAD enzyme activity assay with purchased human PAD2 (BAEE colorimetric assay described for PAD4)
T1 construct: gene PADI2

mouse PAD4 = biological target: T2, mouse PAD4 (Mus musculus, UniProt Q9Z183); assay: BAEE citrullination colorimetric assay (diacetyl monoxime, A465) with purchased enzyme, […] min preincubation
T2 construct: gene Padi4
T2 sequence (Q9Z183 whole entry): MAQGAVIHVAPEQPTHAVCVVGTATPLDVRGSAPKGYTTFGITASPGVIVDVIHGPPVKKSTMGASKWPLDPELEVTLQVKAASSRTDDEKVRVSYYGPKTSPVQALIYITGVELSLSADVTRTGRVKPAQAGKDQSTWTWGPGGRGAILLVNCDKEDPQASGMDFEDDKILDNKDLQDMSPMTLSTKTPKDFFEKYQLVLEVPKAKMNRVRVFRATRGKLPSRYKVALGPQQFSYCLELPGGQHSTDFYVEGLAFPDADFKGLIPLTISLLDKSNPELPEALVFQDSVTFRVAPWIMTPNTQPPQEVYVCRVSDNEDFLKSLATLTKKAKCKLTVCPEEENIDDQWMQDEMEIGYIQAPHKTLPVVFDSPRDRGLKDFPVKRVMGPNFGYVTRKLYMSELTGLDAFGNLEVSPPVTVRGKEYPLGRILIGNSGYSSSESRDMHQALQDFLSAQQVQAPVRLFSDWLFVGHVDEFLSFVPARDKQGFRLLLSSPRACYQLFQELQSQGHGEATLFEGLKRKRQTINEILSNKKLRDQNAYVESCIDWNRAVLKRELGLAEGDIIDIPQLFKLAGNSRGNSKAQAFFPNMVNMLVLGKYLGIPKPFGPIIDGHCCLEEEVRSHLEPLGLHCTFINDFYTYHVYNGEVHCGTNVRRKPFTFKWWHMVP

human PAD4 = biological target: T3, human PAD4 (Homo sapiens, UniProt Q9UM07); assay: as above
T3 construct: gene PADI4
T3 sequence (Q9UM07 whole entry): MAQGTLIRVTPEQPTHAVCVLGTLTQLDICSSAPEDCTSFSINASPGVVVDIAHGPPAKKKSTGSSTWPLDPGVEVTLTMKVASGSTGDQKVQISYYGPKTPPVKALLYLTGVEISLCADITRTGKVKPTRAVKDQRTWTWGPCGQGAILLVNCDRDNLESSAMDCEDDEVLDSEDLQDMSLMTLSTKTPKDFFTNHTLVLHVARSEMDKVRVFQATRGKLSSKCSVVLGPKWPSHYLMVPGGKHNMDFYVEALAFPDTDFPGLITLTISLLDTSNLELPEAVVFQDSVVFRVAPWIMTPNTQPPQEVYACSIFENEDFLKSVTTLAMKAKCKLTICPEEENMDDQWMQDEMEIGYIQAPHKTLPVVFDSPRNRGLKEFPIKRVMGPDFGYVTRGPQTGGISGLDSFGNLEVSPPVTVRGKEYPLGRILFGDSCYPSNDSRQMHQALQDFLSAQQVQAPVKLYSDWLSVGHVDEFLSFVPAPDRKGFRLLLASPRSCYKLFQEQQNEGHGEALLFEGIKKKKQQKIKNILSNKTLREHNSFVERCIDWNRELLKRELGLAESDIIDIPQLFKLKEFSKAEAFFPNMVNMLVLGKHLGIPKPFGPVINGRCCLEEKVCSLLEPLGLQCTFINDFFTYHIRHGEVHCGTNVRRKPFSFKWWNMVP

PAD3 = biological target: T4, PAD3 (Homo sapiens, UniProt Q9ULW8); assay: PAD enzyme activity assay with purchased human PAD3 (BAEE colorimetric assay described for PAD4)
T4 construct: gene PADI3
T4 sequence (Q9ULW8 1-664): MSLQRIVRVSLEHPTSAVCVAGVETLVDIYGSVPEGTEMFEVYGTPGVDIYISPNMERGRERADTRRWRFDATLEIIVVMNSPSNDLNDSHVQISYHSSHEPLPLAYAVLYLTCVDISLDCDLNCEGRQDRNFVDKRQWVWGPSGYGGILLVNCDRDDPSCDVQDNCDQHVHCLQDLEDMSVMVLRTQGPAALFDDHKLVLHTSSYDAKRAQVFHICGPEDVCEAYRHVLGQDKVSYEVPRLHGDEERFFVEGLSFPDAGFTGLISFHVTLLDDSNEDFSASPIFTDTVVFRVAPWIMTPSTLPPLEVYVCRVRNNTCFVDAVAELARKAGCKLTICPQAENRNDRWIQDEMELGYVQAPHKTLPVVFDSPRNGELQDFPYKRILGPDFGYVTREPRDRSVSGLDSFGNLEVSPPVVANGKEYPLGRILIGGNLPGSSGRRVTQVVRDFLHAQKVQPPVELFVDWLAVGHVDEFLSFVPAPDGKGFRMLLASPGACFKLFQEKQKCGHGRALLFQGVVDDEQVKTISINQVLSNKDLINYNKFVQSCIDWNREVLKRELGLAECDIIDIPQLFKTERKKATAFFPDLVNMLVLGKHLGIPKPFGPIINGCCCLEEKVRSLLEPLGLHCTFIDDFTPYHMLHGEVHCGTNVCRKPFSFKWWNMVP

PAD1 = biological target: T5, PAD1 (Homo sapiens, UniProt Q9ULC6); assay: PAD enzyme activity assay with purchased human PAD1 (BAEE colorimetric assay described for PAD4)
T5 construct: gene PADI1
T5 sequence (Q9ULC6 1-663): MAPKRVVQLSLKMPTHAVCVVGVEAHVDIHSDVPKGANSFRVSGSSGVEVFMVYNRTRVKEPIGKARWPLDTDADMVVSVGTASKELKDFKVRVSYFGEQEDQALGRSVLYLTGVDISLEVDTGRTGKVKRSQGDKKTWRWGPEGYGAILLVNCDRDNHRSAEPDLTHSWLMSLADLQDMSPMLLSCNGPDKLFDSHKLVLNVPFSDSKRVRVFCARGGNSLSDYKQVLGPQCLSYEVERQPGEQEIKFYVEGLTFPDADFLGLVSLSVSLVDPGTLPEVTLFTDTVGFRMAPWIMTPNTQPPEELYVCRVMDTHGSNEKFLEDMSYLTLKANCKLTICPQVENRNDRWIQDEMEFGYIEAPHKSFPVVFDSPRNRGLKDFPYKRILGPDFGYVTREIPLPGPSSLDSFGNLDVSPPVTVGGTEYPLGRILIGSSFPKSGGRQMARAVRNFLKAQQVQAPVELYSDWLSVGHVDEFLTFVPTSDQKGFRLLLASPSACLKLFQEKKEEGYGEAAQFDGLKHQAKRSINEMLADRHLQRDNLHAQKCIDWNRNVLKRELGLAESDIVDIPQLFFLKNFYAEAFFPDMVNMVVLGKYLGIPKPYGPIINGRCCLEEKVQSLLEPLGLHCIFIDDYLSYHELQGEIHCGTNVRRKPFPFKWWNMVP

T1 sequence (Q9Y2J8 whole entry): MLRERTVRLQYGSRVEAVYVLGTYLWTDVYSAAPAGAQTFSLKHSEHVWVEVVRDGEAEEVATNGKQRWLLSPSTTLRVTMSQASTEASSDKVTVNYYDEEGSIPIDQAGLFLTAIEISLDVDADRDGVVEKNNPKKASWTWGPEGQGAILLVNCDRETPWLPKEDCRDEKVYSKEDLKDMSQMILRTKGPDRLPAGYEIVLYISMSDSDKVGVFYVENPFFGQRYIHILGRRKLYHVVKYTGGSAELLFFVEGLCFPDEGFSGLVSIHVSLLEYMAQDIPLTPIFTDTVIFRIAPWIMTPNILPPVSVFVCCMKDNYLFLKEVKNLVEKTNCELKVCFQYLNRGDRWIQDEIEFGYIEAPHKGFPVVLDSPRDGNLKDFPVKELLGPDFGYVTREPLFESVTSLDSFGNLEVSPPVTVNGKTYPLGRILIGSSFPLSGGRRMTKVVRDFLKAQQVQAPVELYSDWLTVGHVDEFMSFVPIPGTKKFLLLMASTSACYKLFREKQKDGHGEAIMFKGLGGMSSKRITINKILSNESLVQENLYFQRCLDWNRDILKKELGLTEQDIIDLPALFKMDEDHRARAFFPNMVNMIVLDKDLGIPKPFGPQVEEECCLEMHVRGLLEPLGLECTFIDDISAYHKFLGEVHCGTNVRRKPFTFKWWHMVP

## CN(C)c1ccc2cc(C(=O)N[C@@H](CCCNC(=N)CCl)C(=O)NCc3ccccc3)ccc2c1 [YW3-56]
PAD2
  IC50: 6.34 µM
Mouse PAD4
  IC50: 2.54 µM
Human PAD4
  IC50: 1.19 µM
PAD3
  IC50: 53.4 µM
PAD1
  IC50: 1.45 µM
